For one experiment, the target named is human Factor XIa (Homo sapiens (Human), UniProt P03951). In words: Factor XIa Assay. The following applies: human Factor XIa 0.04 nM, 30 min pre-incubation at 25° C., substrate GPR-AFC; read-out: FXIa IC50. Format: biochemical. In short, it runs like this: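 IC50 values were obtained from four-parameter log(inhibitor)-response fits of % inhibition, then converted to Ki using Cheng-Prusoff. GPR-AFC hydrolysis was read at 400/505 nm after 60 min at 25 °C.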

Experiment [1] has as its system Human plasma (intrinsic coagulation cascade). Put plainly: Activated Partial Thromboplastin Time (aPTT) Assay. The following applies: concentration that causes a 50% (1.5×) increase of clot time over vehicle. The procedure:
Activated partial thromboplastin time (aPTT) is a clotting test that measures the intrinsic coagulation cascade. The test is performed in sodium citrated plasma. Human plasma is made by collecting blood from healthy donors of both genders into Na citrate tubes (Sarstedt coagulation 9NC/10 ml). Blood is centrifuged at 1500×g and the plasma is collected. aPTT is checked on each individual donor and those within the normal range (28-40 seconds) are pooled, aliquoted, and stored at −80 C. Test samples are prepared by spiking inhibitors or vehicle into plasma. These spiked samples are then run on a coagulation analyzer (STA-R Evolution, Stago Diagnostica). In general, the analyzer performs the following steps: Factor XII is activated by addition of ellagic acid (Pacific Hemostasis), and then time to clot is measured after re-calcification of the sample. Inhibition of FXI will cause aPTT clot time to be prolonged. The data is expressed as percent increase over vehicle control clot time and the concentration that causes a 50% (1.5×) percent increase of clot time are reported.

A further experiment concerns the target Human plasma kallikrein (Homo sapiens (Human), UniProt P03952). In words: Kallikrein Assay. Format: biochemical. The following applies: purified Human plasma kallikrein 0.5 nM, substrate Acetyl-K-P-R-AFC; read-out: P. KLK IC50. The method, then: The effectiveness of a compound of the present invention as an inhibitor of Kallikrein can be determined using a relevant purified serine protease, and an appropriate synthetic substrate. The rate of hydrolysis of the chromogenic or fluorogenic substrate by the relevant serine protease was measured both in the absence and presence of compounds of the present invention. Assays were conducted at room temperature or at 37° C. […] A decrease in the rate of fluorescence change in the presence of inhibitor is indicative of enzyme inhibition. Such methods are known to one skilled in the art. The results of this assay are expressed as the half-maximal inhibitory concentrations (IC50), or the inhibitory constant, Ki.
Kallikrein determinations were made in 50 mM HEPES buffer at pH 7.4 containing 150 mM NaCl, 5 mM CaCl2, and 0.1% PEG 8000 (polyethylene glycol; Fisher Scientific). Determinations were made using purified Human plasma kallikrein at a final concentration of 0.5 nM (Enzyme Research Laboratories) and the synthetic substrate, Acetyl-K-P-R-AFC (Sigma # C6608) at a concentration of […].
Times required to achieve equilibration between enzyme and inhibitor were determined in control experiments. The reactions were performed under linear progress curve conditions and fluorescence increase measured at 405 Ex/510 Em nm. […] IC50 was determined by inflection point from a four parameter logistic curve fit. Ki was calculated using the Cheng Prusoff equation, Ki=IC50/(1+([S]/Km)).

pIC50: −log10 of the molar value.

Chain of human Factor XIa (P03951 388-625): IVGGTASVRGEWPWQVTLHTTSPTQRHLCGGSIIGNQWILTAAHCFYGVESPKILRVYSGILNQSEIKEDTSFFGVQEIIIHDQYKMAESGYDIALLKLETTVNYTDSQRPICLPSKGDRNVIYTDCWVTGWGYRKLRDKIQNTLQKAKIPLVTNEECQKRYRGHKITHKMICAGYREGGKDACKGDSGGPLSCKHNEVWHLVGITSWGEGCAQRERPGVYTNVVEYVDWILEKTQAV
Chain of human Factor XIa (P03951 19-387 partner): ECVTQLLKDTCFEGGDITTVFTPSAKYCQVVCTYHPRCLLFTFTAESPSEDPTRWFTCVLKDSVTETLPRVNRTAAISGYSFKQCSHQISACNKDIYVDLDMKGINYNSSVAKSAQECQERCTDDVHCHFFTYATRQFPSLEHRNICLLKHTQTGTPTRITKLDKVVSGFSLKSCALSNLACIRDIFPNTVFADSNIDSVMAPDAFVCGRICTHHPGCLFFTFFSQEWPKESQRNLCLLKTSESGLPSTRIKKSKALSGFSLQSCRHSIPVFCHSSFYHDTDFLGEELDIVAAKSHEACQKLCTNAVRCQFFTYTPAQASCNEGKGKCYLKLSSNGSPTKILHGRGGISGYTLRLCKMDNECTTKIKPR
Chain of Human plasma kallikrein (P03952 391-638): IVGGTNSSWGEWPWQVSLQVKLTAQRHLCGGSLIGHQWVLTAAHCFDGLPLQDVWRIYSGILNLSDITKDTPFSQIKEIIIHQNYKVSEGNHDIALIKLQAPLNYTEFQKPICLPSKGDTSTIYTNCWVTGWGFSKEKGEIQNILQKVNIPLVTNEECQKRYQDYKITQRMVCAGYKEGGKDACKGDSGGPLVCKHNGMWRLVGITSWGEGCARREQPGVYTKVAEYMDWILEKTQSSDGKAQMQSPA
Chain of Human plasma kallikrein (P03952 20-390 partner): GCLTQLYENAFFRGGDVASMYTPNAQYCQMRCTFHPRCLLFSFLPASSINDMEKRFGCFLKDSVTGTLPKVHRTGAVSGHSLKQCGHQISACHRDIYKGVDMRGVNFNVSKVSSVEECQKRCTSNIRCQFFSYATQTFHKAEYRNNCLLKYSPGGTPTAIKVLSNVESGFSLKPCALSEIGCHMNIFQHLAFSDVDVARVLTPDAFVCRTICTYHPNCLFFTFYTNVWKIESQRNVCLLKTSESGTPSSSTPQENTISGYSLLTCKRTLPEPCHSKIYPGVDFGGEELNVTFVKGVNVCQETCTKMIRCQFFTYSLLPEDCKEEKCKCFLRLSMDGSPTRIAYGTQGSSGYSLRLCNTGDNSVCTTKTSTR

What is called pIC50 is the negative decadic logarithm of the IC50, by convention in mol/L. As to `N#CC1(CC(C(=O)Nc2ccc(C(=O)O)cc2)c2ccc(-c3c(C(F)(F)F)ccc(Cl)c3F)c[n+]2[O-])CC1` (racemic) [Example 30, 2-(1-((4-carboxyphenyl)amino)-3-(1-cyanocyclopropyl)-1-oxopropan-2-yl)-5-(3-chloro-2-fluoro-6-(trifluoromethyl)phenyl)pyridine 1-oxide], the pIC50 is 8.12 at human Factor XIa and 6.81 at Human plasma kallikrein. Moreover, the “aPTT (1.5x)” value in experiment [1] amounted to 5.27 µM.

Turning to `N#CC1(CC(C(=O)Nc2ccc(C(=O)O)cc2)c2ccc(-c3c(C(F)F)ccc(Cl)c3F)c[n+]2[O-])CC1` (racemic) [Example 31, 2-(1-((4-carboxyphenyl)amino)-3-(1-cyanocyclopropyl)-1-oxopropan-2-yl)-5-(3-chloro-6-(difluoromethyl)-2-fluorophenyl)pyridine 1-oxide], the pIC50 was 8.52 at human Factor XIa and 7.51 on Human plasma kallikrein. Also, the “aPTT (1.5x)” value in experiment [1] is 0.88 µM.

`O=C(O)c1ccc(NC(=O)C(CC2CC2)c2ccc(-c3cc(Cl)ccc3OC(F)F)c[n+]2[O-])cc1` (single isomer, unassigned) [Example 7, (R)- or (S)-4-[(2-{5-[5-chloro-2-(difluoromethoxy)phenyl]-1-oxidopyridin-2-yl}-3-cyclopropylpropanoyl)amino] benzoic acid]: the results for the pIC50 at human Factor XIa and at Human plasma kallikrein were 8.12 and 6.58, respectively. The “aPTT (1.5x)” value in experiment [1] was determined as 16.38 µM.

Regarding `CCOc1ccc(Cl)c(F)c1-c1ccc(C(CC2CC2)C(=O)Nc2ccc(C(=O)O)cc2)[n+]([O-])c1` (single isomer, unassigned) [Example 9, (R)- or (S)-4-({2-[5-(3-chloro-6-ethoxy-2-fluorophenyl)-1-oxidopyridin-2-yl]-3-cyclopropylpropanoyl}amino) benzoic acid], the pIC50 at human Factor XIa is 8.05; at Human plasma kallikrein, 6.07. The “aPTT (1.5x)” value in experiment [1] is 13 µM.

Take `O=C(O)c1ccc(NC(=O)C(CC2CC(F)C2)c2ccc(-c3c(OC(F)F)ccc(Cl)c3F)c[n+]2[O-])cc1` (single isomer, unassigned) [Example 102, 2-(1-((4-carboxyphenyl)amino)-3-(3-fluorocyclobutyl)-1-oxopropan-2-yl)-5-(3-chloro-6-(difluoromethoxy)-2-fluorophenyl)pyridine 1-oxide]: the “aPTT (1.5x)” value in experiment [1] was found to be 1 µM. Further, the pIC50 on Human plasma kallikrein is 7.50.

On to `O=C(O)c1ccc(NC(=O)C(CC2CC2)c2ccc(-c3c(C(F)F)ccc(Cl)c3F)c[n+]2[O-])cc1F` (single isomer, unassigned) [Example 118, 2-(1-((4-carboxy-3-fluorophenyl)amino)-3-cyclopropyl-1-oxopropan-2-yl)-5-(3-chloro-6-(difluoromethyl)-2-fluorophenyl)pyridine 1-oxide], for which, in experiment [1], the “aPTT (1.5x)” value amounted to 0.66 µM. Moreover, the pIC50 on Human plasma kallikrein is 7.84.

Consider `O=C(O)c1ccc(NC(=O)C(CC2CCC2)c2ccc(-c3c(C(F)F)ccc(Cl)c3F)c[n+]2[O-])cc1F` (single isomer, unassigned) [Example 120, 2-(1-((4-carboxy-3-fluorophenyl)amino)-3-cyclobutyl-1-oxopropan-2-yl)-5-(3-chloro-6-(difluoromethyl)-2-fluorophenyl)pyridine 1-oxide], for which the “aPTT (1.5x)” value in experiment [1] is 0.75 µM. Further, the negative-log IC50 (pIC50) on Human plasma kallikrein is 8.68.

Regarding `O=C(O)c1ccc(NC(=O)C(CC23CC(C2)C3)c2ccc(-c3c(C(F)F)ccc(Cl)c3F)c[n+]2[O-])cc1F` (single isomer, unassigned) [Example 124, 2-(3-(bicyclo[1.1.1]pentan-1-yl)-1-((4-carboxy-3-fluorophenyl)amino)-1-oxopropan-2-yl)-5-(3-chloro-6-(difluoromethyl)-2-fluorophenyl)pyridine 1-oxide], the “aPTT (1.5x)” value in experiment [1] is 1.76 µM. For the same molecule, the pIC50 at Human plasma kallikrein was 8.33.

Source of the values: patent publication US10143681B2, “Factor XIa inhibitors” (MERCK SHARP & DOHME CORP., priority 2016, dated 2018).
